#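 Test compounds were applied to cells in 96-well plates for 48 hours at 5 doses. GI50 marks 50% less growth.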 The source made the active and inactive calls. Cut-off read from the data, not from the text of the source: active = GI50 up to about 1.1 µM and inactive = higher.
# Tests used:
# Assay in all cases: growth of human tumour cells (NCI), 48 h
# SF-539 = tested on: SF-539
# HOP-62 = tested on: HOP-62
# CAKI-1 = tested on: CAKI-1
# 786-0 = tested on: 786-0
# LXFL 529 = tested on: LXFL 529
# HCT-116 = tested on: HCT-116
# K562 = tested on: K562
# OVCAR-4 = tested on: OVCAR-4
# IGROV-1 = tested on: IGROV-1
# UACC-257 = tested on: UACC-257
# M19-MEL = tested on: M19-MEL
# SK-MEL-5 = tested on: SK-MEL-5
# SF-295 = tested on: SF-295
# A498 = tested on: A498
# KM-20L2 = tested on: KM-20L2
# ACHN = tested on: ACHN
# OVCAR-8 = tested on: OVCAR-8
# TK-10 = tested on: TK-10
# HCT-15 = tested on: HCT-15
# SK-MEL-2 = tested on: SK-MEL-2
# HT-29 = tested on: HT-29
# NCI-H226 = tested on: NCI-H226
# SF-268 = tested on: SF-268
# COLO 205 = tested on: COLO 205
# HCC 2998 = tested on: HCC 2998
# EKVX = tested on: EKVX
# HOP-92 = tested on: HOP-92
# SK-MEL-28 = tested on: SK-MEL-28
# NCI-H522 = tested on: NCI-H522
# SNB-19 = tested on: SNB-19
# SN12C = tested on: SN12C
# A549 = tested on: A549
# MOLT-4 = tested on: MOLT-4
# KM12 = tested on: KM12
# XF498 = tested on: XF498
# SNB-75 = tested on: SNB-75
# HL-60 = tested on: HL-60
# DMS-273 = tested on: DMS-273
# OVCAR-5 = tested on: OVCAR-5
# OVCAR-3 = tested on: OVCAR-3
# Malme-3M = tested on: Malme-3M
# UACC-62 = tested on: UACC-62
# DMS-114 = tested on: DMS-114
# NCI-H23 = tested on: NCI-H23
# DLD-1 = tested on: DLD-1
# SW-620 = tested on: SW-620
# SK-OV-3 = tested on: SK-OV-3
# NCI-H460 = tested on: NCI-H460
# UO-31 = tested on: UO-31
# CCRF-CEM = tested on: CCRF-CEM
# U-251 = tested on: U-251
# RPMI-8226 = tested on: RPMI-8226
# RXF 631 = tested on: RXF 631
# M14 = tested on: M14
# SR = tested on: SR
# LOX IMVI = tested on: LOX IMVI
# HOP-18 = tested on: HOP-18
# SNB-78 = tested on: SNB-78
# RXF 393 = tested on: RXF 393
compound,measurement,setting,value
O=C1C2=C(c3ccccc31)C(c1ccccc1)NC(S)=N2 (centres undefined),GI50,SF-539,19.2 µM (inactive)
same,GI50,HOP-62,> 100 µM (inactive)
same,GI50,CAKI-1,48.8 µM (inactive)
same,GI50,786-0,27.4 µM (inactive)
same,GI50,LXFL 529,26.2 µM (inactive)
same,GI50,HCT-116,29 µM (inactive)
same,GI50,K562,22.3 µM (inactive)
same,GI50,OVCAR-4,26.1 µM (inactive)
same,GI50,IGROV-1,75.3 µM (inactive)
same,GI50,UACC-257,> 100 µM (inactive)
same,GI50,M19-MEL,67.9 µM (inactive)
same,GI50,SK-MEL-5,54.8 µM (inactive)
same,GI50,SF-295,31.9 µM (inactive)
same,GI50,A498,> 100 µM (inactive)
same,GI50,KM-20L2,42 µM (inactive)
same,GI50,ACHN,> 100 µM (inactive)
same,GI50,OVCAR-8,35.2 µM (inactive)
same,GI50,TK-10,> 100 µM (inactive)
same,GI50,HCT-15,37.1 µM
same,GI50,SK-MEL-2,84.1 µM (inactive)
same,GI50,HT-29,57.5 µM (inactive)
same,GI50,NCI-H226,> 100 µM (inactive)
same,GI50,SF-268,30.8 µM (inactive)
same,GI50,COLO 205,> 100 µM (inactive)
same,GI50,HCC 2998,> 100 µM (inactive)
same,GI50,EKVX,> 100 µM (inactive)
same,GI50,HOP-92,14.8 µM (inactive)
same,GI50,SK-MEL-28,49.1 µM (inactive)
same,GI50,NCI-H522,33.7 µM (inactive)
same,GI50,SNB-19,38 µM (inactive)
same,GI50,SN12C,> 100 µM (inactive)
same,GI50,A549,45.9 µM (inactive)
same,GI50,MOLT-4,31.4 µM (inactive)
same,GI50,KM12,41.9 µM (inactive)
same,GI50,XF498,56 µM (inactive)
same,GI50,SNB-75,14.4 µM (inactive)
same,GI50,HL-60,17.9 µM (inactive)
same,GI50,DMS-273,26.9 µM (inactive)
same,GI50,OVCAR-5,> 100 µM (inactive)
same,GI50,OVCAR-3,31.6 µM (inactive)
same,GI50,Malme-3M,> 100 µM (inactive)
same,GI50,UACC-62,29 µM (inactive)
same,GI50,DMS-114,30.7 µM (inactive)
same,GI50,NCI-H23,> 100 µM (inactive)
same,GI50,DLD-1,52.6 µM (inactive)
same,GI50,SW-620,31 µM (inactive)
same,GI50,SK-OV-3,> 100 µM (inactive)
same,GI50,NCI-H460,91.6 µM (inactive)
same,GI50,UO-31,> 100 µM (inactive)
same,GI50,CCRF-CEM,30.1 µM (inactive)
same,GI50,U-251,50.1 µM (inactive)
same,GI50,RPMI-8226,40.6 µM (inactive)
same,GI50,RXF 631,43.2 µM (inactive)
same,GI50,M14,55.1 µM (inactive)
C/C=C/C=C/C=C/C=C/C(=O)O,GI50,SF-539,> 100 µM (inactive)
same,GI50,HOP-62,> 100 µM (inactive)
same,GI50,CAKI-1,> 100 µM (inactive)
same,GI50,786-0,> 100 µM (inactive)
same,GI50,LXFL 529,> 100 µM (inactive)
same,GI50,HCT-116,> 100 µM (inactive)
same,GI50,K562,> 100 µM (inactive)
same,GI50,OVCAR-4,> 100 µM (inactive)
same,GI50,SR,> 100 µM (inactive)
same,GI50,IGROV-1,> 100 µM (inactive)
same,GI50,UACC-257,> 100 µM (inactive)
same,GI50,SK-MEL-5,> 100 µM (inactive)
same,GI50,SF-295,> 100 µM (inactive)
same,GI50,A498,> 100 µM (inactive)
same,GI50,KM-20L2,> 100 µM (inactive)
same,GI50,ACHN,> 100 µM (inactive)
same,GI50,OVCAR-8,> 100 µM (inactive)
same,GI50,HCT-15,> 100 µM
same,GI50,SK-MEL-2,> 100 µM (inactive)
same,GI50,HT-29,> 100 µM (inactive)
same,GI50,NCI-H226,> 100 µM (inactive)
same,GI50,SF-268,> 100 µM (inactive)
same,GI50,COLO 205,> 100 µM (inactive)
same,GI50,HCC 2998,> 100 µM (inactive)
same,GI50,EKVX,> 100 µM (inactive)
same,GI50,LOX IMVI,> 100 µM (inactive)
same,GI50,SK-MEL-28,> 100 µM (inactive)
same,GI50,NCI-H522,> 100 µM (inactive)
same,GI50,SNB-19,> 100 µM (inactive)
same,GI50,SN12C,> 100 µM (inactive)
same,GI50,A549,> 100 µM (inactive)
same,GI50,MOLT-4,> 100 µM (inactive)
same,GI50,KM12,> 100 µM (inactive)
same,GI50,SNB-75,> 100 µM (inactive)
same,GI50,HL-60,> 100 µM (inactive)
same,GI50,DMS-273,> 100 µM (inactive)
same,GI50,HOP-18,> 100 µM (inactive)
same,GI50,OVCAR-5,> 100 µM (inactive)
same,GI50,OVCAR-3,> 100 µM (inactive)
same,GI50,Malme-3M,> 100 µM (inactive)
same,GI50,UACC-62,> 100 µM (inactive)
same,GI50,DMS-114,> 100 µM (inactive)
same,GI50,NCI-H23,> 100 µM (inactive)
same,GI50,DLD-1,> 100 µM (inactive)
same,GI50,SNB-78,> 100 µM (inactive)
same,GI50,SW-620,> 100 µM (inactive)
same,GI50,SK-OV-3,> 100 µM (inactive)
same,GI50,NCI-H460,> 100 µM (inactive)
same,GI50,UO-31,> 100 µM (inactive)
same,GI50,CCRF-CEM,> 100 µM (inactive)
same,GI50,U-251,> 100 µM (inactive)
same,GI50,RPMI-8226,> 100 µM (inactive)
same,GI50,RXF 631,> 100 µM (inactive)
same,GI50,RXF 393,> 100 µM (inactive)
same,GI50,M14,> 100 µM (inactive)

# Source: ChEMBL document CHEMBL1201862, “PubChem BioAssay data set” (2004)
